{
  "source": "patent US20070173462A1",
  "about": "“Treatment of diseases associated with the use of antibiotics” (Optimer Pharmaceuticals, Inc., priority 2004, published 2007)",
  "key": {"C. difficile": {"tested_on": "C. difficile", "assay": "MIC via agar dilution, 110 genetically distinct clinical isolates of C. difficile", "format": "cell-based"}, "toxigenic C. difficile": {"tested_on": "toxigenic C. difficile", "assay": "Hamster model of clindamycin-induced Clostridium difficile associated diarrhea/colitis", "format": "in vivo, Syrian hamsters", "details": "oral treatment for 7 days; untreated infection uniformly fatal between days two and six", "method": "Animals were treated with two oral doses of clindamycin at 100 mg/kg. Three days after the second dose of clindamycin, they were inoculated with toxigenic C. difficile spores. […] Animals were observed daily for the presence or absence of diarrhea. Necropsies were performed on some animals that died during the experiment, and cecal contents were assayed for C. difficile toxin A. Hamsters were monitored for 20 days, and the cumulative mortality during this period was recorded (FIG. 1)."}},
  "note": "Read-outs that look alike come from different tables or passages of the source.",
  "data": [
    {"smiles": "Cc1ncc([N+](=O)[O-])n1CCO", "note": "[Metronidazole]", "values": [
      {"measurement": "Range (MIC)", "setting": "C. difficile; 110 clinical isolates, agar dilution", "value": "0.025 to 0.5", "unit": "µg/mL"},
      {"measurement": "MIC", "setting": "C. difficile; Clostridioides difficile, isolate ORG ID 61 5930, read-out: MIC", "value": 0.25, "unit": "µg/mL"},
      {"measurement": "MIC", "setting": "C. difficile; Clostridioides difficile, isolate ORG ID 63 6029, read-out: MIC", "value": 0.25, "unit": "µg/mL"},
      {"measurement": "MIC", "setting": "C. difficile; Clostridioides difficile, isolate ORG ID 64 5940, read-out: MIC", "value": 0.25, "unit": "µg/mL"},
      {"measurement": "MIC", "setting": "C. difficile; Clostridioides difficile, isolate ORG ID 65 5967, read-out: MIC", "value": 0.25, "unit": "µg/mL"},
      {"measurement": "MIC", "setting": "C. difficile; Clostridioides difficile, isolate ORG ID 67 6367, read-out: MIC", "value": 0.25, "unit": "µg/mL"},
      {"measurement": "MIC", "setting": "C. difficile; Clostridioides difficile, isolate ORG ID 69 6370, read-out: MIC", "value": 0.25, "unit": "µg/mL"},
      {"measurement": "MIC", "setting": "C. difficile; Clostridioides difficile, isolate ORG ID 70 6376, read-out: MIC", "value": 0.25, "unit": "µg/mL"},
      {"measurement": "MIC", "setting": "C. difficile; Clostridioides difficile, isolate ORG ID 71 6379, read-out: MIC", "value": 0.25, "unit": "µg/mL"},
      {"measurement": "MIC", "setting": "C. difficile; Clostridioides difficile, isolate ORG ID 72 6380, read-out: MIC", "value": 0.25, "unit": "µg/mL"},
      {"measurement": "MIC", "setting": "C. difficile; Clostridioides difficile, isolate ORG ID 73 6382, read-out: MIC", "value": 0.25, "unit": "µg/mL"},
      {"measurement": "MIC", "setting": "C. difficile; Clostridioides difficile, isolate ORG ID 76 6389, read-out: MIC", "value": 0.25, "unit": "µg/mL"},
      {"measurement": "MIC", "setting": "C. difficile; Clostridioides difficile, isolate ORG ID 78 6392, read-out: MIC", "value": 0.03, "unit": "µg/mL"},
      {"measurement": "MIC", "setting": "C. difficile; Clostridioides difficile, isolate ORG ID 82 6329, read-out: MIC", "value": 0.03, "unit": "µg/mL"},
      {"measurement": "MIC", "setting": "C. difficile; Clostridioides difficile, isolate ORG ID 84 6331, read-out: MIC", "value": 0.25, "unit": "µg/mL"},
      {"measurement": "MIC", "setting": "C. difficile; Clostridioides difficile, isolate ORG ID 88 6335, read-out: MIC", "value": 0.25, "unit": "µg/mL"},
      {"measurement": "MIC", "setting": "C. difficile; Clostridioides difficile, isolate ORG ID 89 6336, read-out: MIC", "value": 0.5, "unit": "µg/mL"},
      {"measurement": "MIC", "setting": "C. difficile; Clostridioides difficile, isolate ORG ID 94 6343, read-out: MIC", "value": 0.06, "unit": "µg/mL"},
      {"measurement": "MIC", "setting": "C. difficile; Clostridioides difficile, isolate ORG ID 98 6350, read-out: MIC", "value": 0.5, "unit": "µg/mL"},
      {"measurement": "MIC", "setting": "C. difficile; Clostridioides difficile, isolate ORG ID 100 6353, read-out: MIC", "value": 0.25, "unit": "µg/mL"},
      {"measurement": "MIC", "setting": "C. difficile; Clostridioides difficile, isolate ORG ID 101 6354, read-out: MIC", "value": 0.06, "unit": "µg/mL"},
      {"measurement": "MIC", "setting": "C. difficile; Clostridioides difficile, isolate ORG ID 104 6060, read-out: MIC", "value": 0.25, "unit": "µg/mL"},
      {"measurement": "MIC", "setting": "C. difficile; Clostridioides difficile, isolate ORG ID 106 6078, read-out: MIC", "value": 0.25, "unit": "µg/mL"},
      {"measurement": "MIC", "setting": "C. difficile; Clostridioides difficile, isolate ORG ID 115 5985, read-out: MIC", "value": 0.25, "unit": "µg/mL"},
      {"measurement": "MIC", "setting": "C. difficile; Clostridioides difficile, isolate ORG ID 120 6057, read-out: MIC", "value": 0.25, "unit": "µg/mL"},
      {"measurement": "MIC", "setting": "C. difficile; Clostridioides difficile, isolate ORG ID 121 6072, read-out: MIC", "value": 0.25, "unit": "µg/mL"},
      {"measurement": "MIC", "setting": "C. difficile; Clostridioides difficile, isolate ORG ID 122 6111, read-out: MIC", "value": 0.25, "unit": "µg/mL"},
      {"measurement": "MIC", "setting": "C. difficile; Clostridioides difficile, isolate ORG ID A1 1535, read-out: MIC", "value": 0.25, "unit": "µg/mL"},
      {"measurement": "MIC", "setting": "C. difficile; Clostridioides difficile, isolate ORG ID AH1 3430, read-out: MIC", "value": 0.25, "unit": "µg/mL"},
      {"measurement": "MIC", "setting": "C. difficile; Clostridioides difficile, isolate ORG ID BE1 4307, read-out: MIC", "value": 0.25, "unit": "µg/mL"},
      {"measurement": "MIC", "setting": "C. difficile; Clostridioides difficile, isolate ORG ID BH1 4506, read-out: MIC", "value": 0.06, "unit": "µg/mL"},
      {"measurement": "MIC", "setting": "C. difficile; Clostridioides difficile, isolate ORG ID BN1 1322, read-out: MIC", "value": 0.25, "unit": "µg/mL"},
      {"measurement": "MIC", "setting": "C. difficile; Clostridioides difficile, isolate ORG ID BV1 1183, read-out: MIC", "value": 0.25, "unit": "µg/mL"},
      {"measurement": "MIC", "setting": "C. difficile; Clostridioides difficile, isolate ORG ID BX1 4271, read-out: MIC", "value": 0.25, "unit": "µg/mL"},
      {"measurement": "MIC", "setting": "C. difficile; Clostridioides difficile, isolate ORG ID CJ1 893, read-out: MIC", "value": 0.025, "unit": "µg/mL"},
      {"measurement": "MIC", "setting": "C. difficile; Clostridioides difficile, isolate ORG ID CN1 667, read-out: MIC", "value": 0.25, "unit": "µg/mL"},
      {"measurement": "MIC", "setting": "C. difficile; Clostridioides difficile, isolate ORG ID CP1 5491, read-out: MIC", "value": 0.25, "unit": "µg/mL"},
      {"measurement": "MIC", "setting": "C. difficile; Clostridioides difficile, isolate ORG ID D1 1360, read-out: MIC", "value": 0.25, "unit": "µg/mL"},
      {"measurement": "MIC", "setting": "C. difficile; Clostridioides difficile, isolate ORG ID J1 5971, read-out: MIC", "value": 0.25, "unit": "µg/mL"},
      {"measurement": "MIC", "setting": "C. difficile; Clostridioides difficile, isolate ORG ID K1 4305, read-out: MIC", "value": 0.25, "unit": "µg/mL"},
      {"measurement": "MIC", "setting": "C. difficile; Clostridioides difficile, isolate ORG ID R6 6015, read-out: MIC", "value": 0.25, "unit": "µg/mL"},
      {"measurement": "MIC", "setting": "C. difficile; Clostridioides difficile, isolate ORG ID W1 3931, read-out: MIC", "value": 0.5, "unit": "µg/mL"},
      {"measurement": "MIC90", "setting": "C. difficile; Clostridioides difficile, 110 clinical isolates, agar dilution", "value": 0.25, "unit": "µg/mL"},
      {"measurement": "MIC", "setting": "C. difficile; Clostridioides difficile, 110 clinical isolates, agar dilution, read-out: Geometric Mean (MIC)", "value": 0.15, "unit": "µg/mL"},
      {"measurement": "protection from infection (cumulative mortality over 20 days)", "setting": "toxigenic C. difficile", "value": "protected the animals from infection"}
    ]}
  ]
}
